Measured values as given in patent publication US20260250318A1, “COMPOSITIONS AND METHODS FOR CROSSING THE BLOOD BRAIN BARRIER” (VOYAGER THERAPEUTICS, INC., priority 2022, published 2026).

System: brains, heart, liver, muscle, and DRG of the NHPs
Test: Maturation of TTM-001 and TTM-002 capsids, NGS enrichment in NHP tissues
Type: in vivo
Text: This Example describes maturation of the AAV9 capsid variants, TTM-001 (SEQ ID NO: 981 (amino acid) and 983 (DNA), comprising SEQ ID NO: 941 (encoded by SEQ ID NO: 942)) and TTM-002 (SEQ ID NO: 982 (amino acid) and 984 (DNA), comprising SEQ ID NO: […] (encoded by SEQ ID NO: 944)) in NHPs to further enhance their transduction and biodistribution in the central nervous system as well as other tissues, and evolve the AAV capsid variants to provide further cross-species compatibility. Two approaches were used to mature the TTM-001 and TTM-002 capsid sequences in order to randomize and mutate within and around the peptide insert comprised within loop IV of the capsid variant. […] In the first maturation approach, sets of three contiguous amino acids were randomized across the mutagenesis region in the TTM-001 and TTM-002 sequences, which spanned from position 450 to position 466, numbered according to SEQ ID NO: 981 and 982. In the second maturation approach, mutagenic primers were used to introduce point mutations at a low frequency, scattered across the mutagenesis region in the TTM-001 and TTM-002 sequences ranging from position 449 to position 466, numbered according to SEQ ID NO: 981 and 982. AAV capsid variants arising from each maturation approach for TTM-001 and TTM-002 were pooled together, for subsequent testing and characterization in NHPs.
The library of pooled matured AAV capsid variants generated using the first maturation approach and the second maturation approach for the TTM-001 and TTM-002 AAV capsid variants were injected into two NHPs. […] Following RNA recovery and RT-PCR amplification, a systematic NGS enrichment analysis was performed to calculate the fold enrichment ratio relative to an AAV9 control, and the peptides comprised within the variants were identified.
Following the RNA recovery and NGS analysis from the second maturation approach, approximately 680,000 capsid variants were identified. The 680,000 matured capsid variants were then filtered based on samples with a raw virus count greater than 10 and a coefficient of variance (CV) of less than 1, which was calculated for each peptide across the brain samples taken from the two NHPs. […] Using this filtering criteria, this led to approximately 64,000 matured capsid variants.

[1] = NHP DRG, NGS, relative to AAV9 control
[2] = NHP brain, NGS, relative to AAV9 control
[3] = NHP heart, NGS, relative to AAV9 control
[4] = NHP liver DNA, NGS, relative to AAV9 control
[5] = NHP liver RNA, NGS, TTM-001 and TTM-002 matured AAV capsid variants, relative to AAV9 control
[6] = NHP muscle, NGS, relative to AAV9 control
[7] = NGS fold-enrichment, DRG, NHP, relative to AAV9
[8] = NGS fold-enrichment, brain, NHP, relative to AAV9
[9] = NGS fold-enrichment, heart, NHP, relative to AAV9
[10] = NGS fold-enrichment, liver DNA, NHP, relative to AAV9
[11] = NGS fold-enrichment, liver RNA, NHP, relative to AAV9
[12] = NGS fold-enrichment, muscle, NHP, relative to AAV9

Sequence | Fold Enrichment relative to AAV9, DRG (NHP) [1] [fold] | Fold Enrichment relative to AAV9, Brain (NHP) [2] [fold] | Fold Enrichment relative to AAV9, Heart (NHP) [3] [fold] | Fold Enrichment relative to AAV9, Liver DNA (NHP) [4] [fold] | Fold Enrichment relative to AAV9, Liver RNA (NHP) [5] [fold] | Fold Enrichment relative to AAV9, Muscle (NHP) [6] [fold] | Fold Enrichment relative to AAV9, DRG (NHP) [7] [fold] | Fold Enrichment relative to AAV9, Brain (NHP) [8] [fold] | Fold Enrichment relative to AAV9, Heart (NHP) [9] [fold] | Fold Enrichment relative to AAV9, Liver DNA (NHP) [10] [fold] | Fold Enrichment relative to AAV9, Liver RNA (NHP) [11] [fold] | Fold Enrichment relative to AAV9, Muscle (NHP) [12] [fold]
KTINGSSSPHRCAQNQQT (peptide inserted in AAV capsid) | 0.000 | 0.000 | 0.000 | 1.829 | 28.887 | 0.000 |  |  |  |  |  | 
KTINGSSSPHWMAQNQQT (peptide inserted in AAV capsid) | 0.000 | 0.000 | 0.000 | 2.390 | 16.635 | 0.000 |  |  |  |  |  | 
KTINGSVSPHCTAQNQQT (peptide inserted in AAV capsid) | 0.000 | 0.000 | 0.000 | 2.955 | 13.502 | 0.000 |  |  |  |  |  | 
KTINGSYSPHCLAQNQQT (peptide inserted in AAV capsid) | 0.000 | 0.000 | 0.000 | 0.309 | 62.942 | 0.000 |  |  |  |  |  | 
KTINGTRSPHKKAQNQQT | 0.225 | 0.700 | 0.052 | 1.152 | 14.173 | 4.082 |  |  |  |  |  | 
KTINHRISPHSKAQNQQT | 0.000 | 0.000 | 0.000 | 1.876 | 42.998 | 0.000 |  |  |  |  |  | 
KTINKCLSPHSKAQNQQT | 0.000 | 0.000 | 0.000 | 5.097 | 30.667 | 0.000 |  |  |  |  |  | 
KTINLGCSPHSKAQNQQT | 0.000 | 0.000 | 0.000 | 0.654 | 12.564 | 0.000 |  |  |  |  |  | 
KTINRQFSPHSKAQNQQT |  |  |  |  |  |  | 0.000 | 0.000 | 0.000 | 4.480 | 10.275 | 0.000
KTINRYSSPHSKAQNQQT |  |  |  |  |  |  | 0.000 | 0.000 | 0.000 | 1.544 | 10.926 | 0.000
KTINSCFSPHSKAQNQQT | 0.000 | 0.000 | 0.000 | 1.016 | 11.847 | 0.000 |  |  |  |  |  | 
KTINWSRSPHSKAQNQQT | 0.000 | 0.000 | 0.000 | 5.624 | 14.399 | 0.000 |  |  |  |  |  | 
KTINYTRSPHSKAQNQQT | 0.000 | 0.000 | 0.000 | 0.431 | 11.514 | 0.000 |  |  |  |  |  | 
KTISGHDSPHISGQYQQT | 0.000 | 0.000 | 0.074 | 0.420 | 12.395 | 1214.588 |  |  |  |  |  | 
KTIVGSGSPHSKPQNQQT |  |  |  |  |  |  | 0.000 | 0.000 | 0.000 | 0.894 | 10.381 | 0.000
KTKLCSGSPHSKAQNQQT | 0.000 | 0.000 | 0.000 | 2.139 | 12.570 | 0.000 |  |  |  |  |  | 
KTMQRSGSPHSKAQNQQT | 0.000 | 0.000 | 0.000 | 3.159 | 18.020 | 0.000 |  |  |  |  |  | 
KTQRKSGSPHSKAQNQQT | 0.000 | 0.000 | 0.000 | 1.439 | 119.659 | 0.000 |  |  |  |  |  | 
KTRKRSGSPHSKAQNQQT | 0.000 | 0.000 | 0.000 | 2.075 | 16.603 | 0.000 |  |  |  |  |  | 
KTRRPSGSPHSKAQNQQT | 0.000 | 0.000 | 0.000 | 2.384 | 42.374 | 0.000 |  |  |  |  |  | 
KTRTRSGSPHSKAQNQQT | 0.000 | 0.000 | 0.000 | 6.894 | 25.852 | 0.000 |  |  |  |  |  | 
